Drawing on ChEMBL document CHEMBL5360610, “N-Alkyl Carbamoylimidazoles as Versatile Synthons for the Synthesis of Urea-Based PSMA Inhibitors” (ACS Med Chem Lett, 2023), this text covers IC50 and inhibition for 6 molecules.

In assay [1] the target is T1, Glutamate carboxypeptidase 2 (Homo sapiens, UniProt Q04609). The experiment in a line: Displacement of [18F]PSMA-1007 from human PSMA expressed in human LNCaP cells by competitive binding assay. It counts as cell-based.
Target sequence in this assay (Q04609 whole entry): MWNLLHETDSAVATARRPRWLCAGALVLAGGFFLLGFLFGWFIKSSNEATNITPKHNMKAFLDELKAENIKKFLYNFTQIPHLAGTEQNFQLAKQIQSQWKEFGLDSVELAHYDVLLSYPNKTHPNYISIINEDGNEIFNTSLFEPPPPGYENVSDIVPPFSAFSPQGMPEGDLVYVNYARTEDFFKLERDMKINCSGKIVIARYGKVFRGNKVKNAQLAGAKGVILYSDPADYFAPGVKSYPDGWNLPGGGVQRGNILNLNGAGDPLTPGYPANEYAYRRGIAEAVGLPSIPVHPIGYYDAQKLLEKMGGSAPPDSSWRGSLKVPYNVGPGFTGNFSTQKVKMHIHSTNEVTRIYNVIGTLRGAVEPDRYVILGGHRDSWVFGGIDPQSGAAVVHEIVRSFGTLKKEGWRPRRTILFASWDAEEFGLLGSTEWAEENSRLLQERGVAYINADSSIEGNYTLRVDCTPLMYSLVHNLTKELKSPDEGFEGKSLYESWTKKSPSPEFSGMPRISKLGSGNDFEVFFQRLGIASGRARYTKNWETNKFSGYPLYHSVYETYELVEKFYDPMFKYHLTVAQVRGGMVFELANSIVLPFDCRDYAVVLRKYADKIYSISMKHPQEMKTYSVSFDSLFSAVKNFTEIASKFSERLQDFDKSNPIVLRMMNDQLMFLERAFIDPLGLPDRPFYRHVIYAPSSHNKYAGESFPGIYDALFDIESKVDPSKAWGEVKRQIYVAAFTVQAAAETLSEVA
The target in assay [2] is T1, Glutamate carboxypeptidase 2. Put plainly: Displacement of [18F]PSMA-1007 from human PSMA expressed in human LNCaP cells at 0.1 to 100000 nM by competitive binding assay. In kind it is cell-based. The conditions noted are these: dose 0.1-100000 nM.
Target sequence in this assay (Q04609 whole entry, looked up): as the sequence (Q04609 whole entry) above

Active and inactive are the calls of the source. The calls are words filed in the database; no cut-off is given here.

For `O=C(O)CC[C@H](NC(=O)N[C@@H](CCCC(=O)NCc1ccc(F)cc1)C(=O)O)C(=O)O`, the half-maximal inhibitory concentration (IC50) (as a rule, the point on the concentration scale where inhibition reaches its midpoint) in assay [1] turned out to be 1500 nM.

For `O=C(Nc1scc(C(=O)O)c1C(=O)O)N[C@@H](CCCCNC(=O)c1ccc(F)cc1)C(=O)O`, the inhibition result in assay [2] was “inactive”.

Molecule `O=C(O)CC[C@H](NC(=O)N[C@@H](CCCCNC(=O)[C@H](Cc1ccc2ccccc2c1)NC(=O)[C@H]1CC[C@H](CNC(=O)[C@H](CCC(=O)O)NC(=O)[C@H](CCC(=O)O)NC(=O)c2ccc(F)nc2)CC1)C(=O)O)C(=O)O` showed a 50% inhibitory concentration (IC50) in assay [1] of 4 nM.

In the case of `O=C(Nc1scc(C(=O)O)c1C(=O)O)N[C@@H](CCCCNC(=O)c1cccc(F)n1)C(=O)O`, the inhibition entry in assay [2] is “inactive”.

`O=C(O)CC[C@H](NC(=O)N[C@@H](CCCC(=O)Nc1ccc(F)nc1)C(=O)O)C(=O)O`: the IC50 in assay [1] is 90 nM.

In assay [1], `O=C(O)CC[C@H](CC(=O)N[C@@H](CCCCNC(=O)[C@H](Cc1ccccc1)NC(=O)COc1ccc(C[C@H](NC(=O)CCC(=O)CO/N=C/c2ccc(F)cc2)C(=O)O)cc1)C(=O)O)C(=O)O` registered a half-maximal inhibitory concentration (IC50) of 13 nM.
